Source: patent publication US20250213707A1, “COMPOUND FOR INCREASING EFFICACY OF ONCOLYTIC VIRUSES” (ABLEVIA BIOTECH GMBH, priority 2022, published 2025)

Test system: polyclonal antibody ab6982
Experiment: Epitope mapping of polyclonal antibody ab6982 against cyclic peptides of Ad5 fiber and hexon (peptide array)
Assay type: binding, rabbits
Conditions: cyclic peptides of hexon protein (clusters 8-16)
Excerpt: Polyclonal antibody ab6982 (Abcam) was generated by immunizing rabbits with purified AdV. It reacts with all capsid proteins of Ad5 including hexon, fiber and penton. It was shown that the antibody neutralizes Ad5 infection in a bioassay at 1000 adenovirus 5 particles/ml, a 50% inactivation of the adenovirus can be achieved at a 1/25,000 dilution of the antibody. In order to identify epitopic regions that could contain peptides for ab6982 paratope binding, the antibody was mapped against the sequences of fiber (NCBI Reference Sequence: AP 000226.1) and hexon protein (GenBank: BAG48782.1). […] The binding signal of this antibody to the array yielded several peptides that were aligned and clustered against the sequence of the protein. The peptide clusters were named cluster1-7 (fiber protein) and clusters8-16 (hexon protein) according to their ranked order of cyclic peptide hits (i.e. cluster contains the strongest binders, cluster2 the second strongest etc.). Below are the aligments of the corresponding peptides that bind to polyclonal antibody ab6982.

Substance | antibody binding signal ranking from the microarray experiment
236 (NLEEEDDDNEDEV) [compound 236] | 029
237 (INLEEED) [compound 237] | 032
238 (LEEEDDDNED) [compound 238] | 034
239 (INLEEEDDDNEDE) [compound 239] | 035
240 (DDDNEDEVDEQAE) [compound 240] | 037
241 (LEEEDDDNEDEVD) [compound 241] | 053
242 (DDNEDEVDEQ) [compound 242] | 057
243 (EDDDNED) [compound 243] | 063
244 (NLEEEDD) [compound 244] | 065
245 (DDNEDEV) [compound 245] | 078
246 (DDDNEDEVDE) [compound 246] | 087
247 (DDDNEDE) [compound 247] | 096
248 (EEEDDDNEDE) [compound 248] | 097
249 (EEDDDNE) [compound 249] | 108
250 (EDDDNEDEVD) [compound 250] | 121
251 (EDEVDEQ) [compound 251] | 126
252 (EEDDDNEDEVDEQ) [compound 252] | 148
253 (EEDDDNEDEV) [compound 253] | 185
254 (EEEDDDNEDEVDE) [compound 254] | 188
255 (EVDEQAEQQK) [compound 255] | 030
256 (DNEDEVDEQAEQQ) [compound 256] | 031

Substance | antibody binding signal ranking from the microarray experiment
257 (VDEQAEQQKT) [compound 257] | 036
258 (EVDEQAEQQKTHV) [compound 258] | 038
259 (VDEQAEQQKTHVF) [compound 259] | 041
260 (ALEINLE) [compound 260] | 033
261 (WDEAATALEINLE) [compound 261] | 042
262 (AATALEINLE) [compound 262] | 043
263 (EWDEAATALEINL) [compound 263] | 112
264 (EAATALEINL) [compound 264] | 124
265 (LYSEDVDIET) [compound 265] | 039
266 (LYSEDVDIETPDT) [compound 266] | 040
267 (KVVLYSEDVDIET) [compound 267] | 044
268 (IETPDTH) [compound 268] | 045
269 (VDIETPDTHI) [compound 269] | 046
270 (VLYSEDVDIE) [compound 270] | 047
271 (DVDIETPDTHISY) [compound 271] | 048
272 (VVLYSEDVDIETP) [compound 272] | 049
273 (SEDVDIETPDTHI) [compound 273] | 050
274 (ETPDTHI) [compound 274] | 051
275 (VLYSEDVDIETPD) [compound 275] | 052
276 (DVDIETPDTH) [compound 276] | 054
